Numbered stars: 1 amine (or outer) side, 2 acyl side, 3 side chain; on linkers, the order of the positions; unused ones are H or OH. Bridge positions count the residues as written; N and C are the ends. Peptide text beside a SMILES is read from it. I, II: the chains in the order shown. X2 = c1ccc([Si](O[*:1])(O[*:2])c2ccccc2)cc1; X1 = C[Si](C)(O[*:1])O[*:2]
What was measured:
Seminome = assay: Effect on seminomas
Hepatitis C-Viren = assay: Antiviral effect; conditions: in particular as vesicles holding antisense constructs
Adenokarzinom-Gewebe = assay: Effect against adenocarcinoma tissue, inhibition of metastasis
Angiosarkome = assay: Effect on angiosarcomas
Basalzellkarzinome = assay: Effect on basal cell carcinomas
Hepatitis B-Viren = assay: Antiviral effect; conditions: in particular as vesicles holding antisense constructs
Sendai-Viren = assay: Antiviral effect; conditions: in particular as vesicles holding antisense constructs
[1] = system: Osteosarkom bzw. Adenokarzinome; assay: Effect in mice on osteosarcoma or adenocarcinoma; parameters: species or system Mäuse; conditions: in vivo
Medulloblastom-Zellen = assay: Inhibition of cell multiplication; type: cell-based
[2] = system: Zellen des Basatzellkarzinoms; assay: Inhibition of cell multiplication; type: cell-based
Adenokarzinome = assay: Effect on adenocarcinomas
Lymphome = assay: Effect on lymphomas
Hepatitis-Viren = assay: Antiviral effect; conditions: in particular as vesicles holding antisense constructs

CCCCCCCC/C=C\CCCCCCCC(=O)O[Si](CC)(CC)OC(=O)CCCCCCC/C=C\CCCCCCCC [Di (oleylooxy)diethylsilan]
Wirkung auf Seminome (Seminome): zeigen eine Wirkung | Wirkung gegen Hepatitis C-Viren (Hepatitis C-Viren): zeigen eine Wirkung

CCCCCCCCCCCC(=O)O[Si](OC(=O)CCCCCCCCCCC)(C(C)C)C(C)C [Di(dodecanoyloxy)diisopropylsilan]
Wirkung gegen Adenokarzinom-Gewebe, insbesondere inhibierende Wirkung auf die Metastasierung (Adenokarzinom-Gewebe): haben eine Wirkung

CCCCCCCCCCCCCCCCC(=O)O[Si](CCC)(CCC)OC(=O)CCCCCCCCCCCCCCCC [Di(heptadecanoyloxy)dipropylsilan]
Wirkung gegen Angiosarkome (Angiosarkome): zeigen eine Wirkung | Wirkung auf Basalzellkarzinome (Basalzellkarzinome): zeigen eine Wirkung | Wirkung gegen Hepatitis B-Viren (Hepatitis B-Viren): zeigen eine Wirkung | Wirkung gegen Sendai-Viren (Sendai-Viren): zeigen eine Wirkung

CCCCCCCCCCCCCCCC(=O)O[Si](OC(=O)CCCCCCCCCCCCCCC)(C(C)C)C(C)C [Di(hexadecanoyloxy)diisopropylsilan]
Wirkung gegen Adenokarzinom-Gewebe, insbesondere inhibierende Wirkung auf die Metastasierung (Adenokarzinom-Gewebe): haben eine Wirkung

CCCCCCCCCCCCCCCC(=O)O[Si](CCC)(CCC)OC(=O)CCCCCCCCCCCCCCC [Di(hexadecanoyloxy)dipropylsilan]
Wirkung gegen Angiosarkome (Angiosarkome): zeigen eine Wirkung | Wirkung auf Basalzellkarzinome (Basalzellkarzinome): zeigen eine Wirkung | Wirkung gegen Hepatitis B-Viren (Hepatitis B-Viren): zeigen eine Wirkung | Wirkung gegen Sendai-Viren (Sendai-Viren): zeigen eine Wirkung

CC/C=C\C/C=C\C/C=C\CCCCCCCC(=O)O[Si](CC)(CC)OC(=O)CCCCCCC/C=C\C/C=C\C/C=C\CC [Di(linolenoylooxy)diethylsilan]
Wirkung auf Seminome (Seminome): zeigen eine Wirkung | Wirkung gegen Hepatitis C-Viren (Hepatitis C-Viren): zeigen eine Wirkung

CC/C=C\C/C=C\C/C=C\CCCCCCCC(=O)O[Si](CCC)(CCC)OC(=O)CCCCCCC/C=C\C/C=C\C/C=C\CC [Di(linolenoylooxy)dipropylsilan]
Wirkung auf Seminome (Seminome): zeigen eine Wirkung | Wirkung gegen Hepatitis C-Viren (Hepatitis C-Viren): zeigen eine Wirkung

CCCCC/C=C\C/C=C\CCCCCCCC(=O)O[Si](CCC)(CCC)OC(=O)CCCCCCC/C=C\C/C=C\CCCCC [Di(linoylooxy)dipropylsilan]
Wirkung auf Seminome (Seminome): zeigen eine Wirkung | Wirkung gegen Hepatitis C-Viren (Hepatitis C-Viren): zeigen eine Wirkung

CCCCCCCCCCCCCCCCCC(=O)O[Si](CCC)(CCC)OC(=O)CCCCCCCCCCCCCCCCC [Di(octadecanoyloxy)dipropylsilan]
Wirkung gegen Angiosarkome (Angiosarkome): zeigen eine Wirkung | Wirkung auf Basalzellkarzinome (Basalzellkarzinome): zeigen eine Wirkung | Wirkung gegen Hepatitis B-Viren (Hepatitis B-Viren): zeigen eine Wirkung | Wirkung gegen Sendai-Viren (Sendai-Viren): zeigen eine Wirkung

CCCCCCCC(=O)O[Si](OC(=O)CCCCCCC)(C(C)C)C(C)C [Di(octanoyloxy)diisopropylsilan]
Wirkung gegen Angiosarkome (Angiosarkome): zeigen eine Wirkung | Wirkung auf Basalzellkarzinome (Basalzellkarzinome): zeigen eine Wirkung | Wirkung gegen Hepatitis B-Viren (Hepatitis B-Viren): zeigen eine Wirkung | Wirkung gegen Sendai-Viren (Sendai-Viren): zeigen eine Wirkung

CCCCCCCCCCCCCCC(=O)O[Si](OC(=O)CCCCCCCCCCCCCC)(C(C)C)C(C)C [Di(pentadecanoyloxydiisopropylsilan]
Wirkung gegen Adenokarzinom-Gewebe, insbesondere inhibierende Wirkung auf die Metastasierung (Adenokarzinom-Gewebe): haben eine Wirkung

CCCCCCCCCCCCCC(=O)O[Si](OC(=O)CCCCCCCCCCCCC)(C(C)C)C(C)C [Di(tetradecanoyloxy)diisopropylsilan]
Wirkung gegen Adenokarzinom-Gewebe, insbesondere inhibierende Wirkung auf die Metastasierung (Adenokarzinom-Gewebe): haben eine Wirkung

CCCCCCCCCCCCC(=O)O[Si](OC(=O)CCCCCCCCCCCC)(C(C)C)C(C)C [Di(tridecanoyloxy)diisopropylsilan]
Wirkung gegen Adenokarzinom-Gewebe, insbesondere inhibierende Wirkung auf die Metastasierung (Adenokarzinom-Gewebe): haben eine Wirkung

C[C@H](N)C(=O)N[C@@H](C)C(=O)N[C@@H](C)C(=O)N[C@@H](C)C(=O)N[C@@H](C)C(=O)N[C@@H](C)C(=O)N[C@@H](C)C(=O)N[C@@H](C)C(=O)O[Si](C)(C)OC(=O)[C@H](C)NC(=O)[C@H](C)NC(=O)[C@H](C)NC(=O)[C@H](C)NC(=O)[C@H](C)NC(=O)[C@H](C)NC(=O)[C@H](C)NC(=O)[C@H](C)N [Dimethyl bis(octaalanyl)silylester] (I: H-AAAAAAAA / II: H-AAAAAAAA; linker I:C-II:C via X1)
Wirkung auf Mäuse, Osteosarkom bzw. Adenokarzinome [1]: zeigen eine Wirkung | Vermehrung von Medulloblastom-Zellen (Medulloblastom-Zellen): inhibieren | Vermehrung von Zellen des Basatzellkarzinoms [2]: inhibieren

CC(C)[C@H](N)C(=O)N[C@H](C(=O)N[C@H](C(=O)N[C@H](C(=O)N[C@H](C(=O)N[C@H](C(=O)N[C@H](C(=O)N[C@H](C(=O)O[Si](C)(C)OC(=O)[C@@H](NC(=O)[C@@H](NC(=O)[C@@H](NC(=O)[C@@H](NC(=O)[C@@H](NC(=O)[C@@H](NC(=O)[C@@H](NC(=O)[C@@H](N)C(C)C)C(C)C)C(C)C)C(C)C)C(C)C)C(C)C)C(C)C)C(C)C)C(C)C)C(C)C)C(C)C)C(C)C)C(C)C)C(C)C)C(C)C [Dimethyl bis(octavalyl)silylester] (I: H-VVVVVVVV / II: H-VVVVVVVV; linker I:C-II:C via X1)
Wirkung auf Adenokarzinome (Adenokarzinome): zeigen eine Wirkung

C[C@H](N)C(=O)N[C@@H](C)C(=O)N[C@@H](C)C(=O)N[C@@H](C)C(=O)N[C@@H](C)C(=O)O[Si](C)(C)OC(=O)[C@H](C)NC(=O)[C@H](C)NC(=O)[C@H](C)NC(=O)[C@H](C)NC(=O)[C@H](C)N [Dimethyl bis(pentaalanyl)silylester]
Wirkung auf Mäuse, Osteosarkom bzw. Adenokarzinome [1]: zeigen eine Wirkung | Vermehrung von Medulloblastom-Zellen (Medulloblastom-Zellen): inhibieren | Vermehrung von Zellen des Basatzellkarzinoms [2]: inhibieren

CC(C)[C@H](N)C(=O)N[C@H](C(=O)N[C@H](C(=O)N[C@H](C(=O)N[C@H](C(=O)O[Si](C)(C)OC(=O)[C@@H](NC(=O)[C@@H](NC(=O)[C@@H](NC(=O)[C@@H](NC(=O)[C@@H](N)C(C)C)C(C)C)C(C)C)C(C)C)C(C)C)C(C)C)C(C)C)C(C)C)C(C)C [Dimethyl bis(pentavalyl)silylester]
Wirkung auf Adenokarzinome (Adenokarzinome): zeigen eine Wirkung

C[C@H](N)C(=O)N[C@@H](C)C(=O)N[C@@H](C)C(=O)N[C@@H](C)C(=O)O[Si](C)(C)OC(=O)[C@H](C)NC(=O)[C@H](C)NC(=O)[C@H](C)NC(=O)[C@H](C)N [Dimethyl bis(tetraalanyl)silylester]
Wirkung auf Mäuse, Osteosarkom bzw. Adenokarzinome [1]: zeigen eine Wirkung | Vermehrung von Medulloblastom-Zellen (Medulloblastom-Zellen): inhibieren | Vermehrung von Zellen des Basatzellkarzinoms [2]: inhibieren

CC(C)[C@H](N)C(=O)N[C@H](C(=O)N[C@H](C(=O)N[C@H](C(=O)O[Si](C)(C)OC(=O)[C@@H](NC(=O)[C@@H](NC(=O)[C@@H](NC(=O)[C@@H](N)C(C)C)C(C)C)C(C)C)C(C)C)C(C)C)C(C)C)C(C)C [Dimethyl bis(tetravalyl)silylester]
Wirkung auf Adenokarzinome (Adenokarzinome): zeigen eine Wirkung

C[C@H](N)C(=O)N[C@@H](C)C(=O)N[C@@H](C)C(=O)O[Si](C)(C)OC(=O)[C@H](C)NC(=O)[C@H](C)NC(=O)[C@H](C)N [Dimethyl bis(trialanyl)sillylester]
Wirkung auf Mäuse, Osteosarkom bzw. Adenokarzinome [1]: zeigen eine Wirkung | Vermehrung von Medulloblastom-Zellen (Medulloblastom-Zellen): inhibieren | Vermehrung von Zellen des Basatzellkarzinoms [2]: inhibieren

C[C@H](N)C(=O)N[C@@H](C)C(=O)N[C@@H](C)C(=O)N[C@@H](C)C(=O)N[C@@H](C)C(=O)N[C@@H](C)C(=O)N[C@@H](C)C(=O)O[Si](OC(=O)[C@H](C)NC(=O)[C@H](C)NC(=O)[C@H](C)NC(=O)[C@H](C)NC(=O)[C@H](C)NC(=O)[C@H](C)NC(=O)[C@H](C)N)(c1ccccc1)c1ccccc1 [Diphenyl bis(heptaalanyl)silylester] (I: H-AAAAAAA / II: H-AAAAAAA; linker I:C-II:C via X2)
Wirkung auf Lymphome (Lymphome): zeigen eine Wirkung | Wirkung gegen Hepatitis-Viren (Hepatitis-Viren): zeigen eine Wirkung

C[C@H](N)C(=O)N[C@@H](C)C(=O)N[C@@H](C)C(=O)N[C@@H](C)C(=O)N[C@@H](C)C(=O)N[C@@H](C)C(=O)N[C@@H](C)C(=O)N[C@@H](C)C(=O)N[C@@H](C)C(=O)O[Si](OC(=O)[C@H](C)NC(=O)[C@H](C)NC(=O)[C@H](C)NC(=O)[C@H](C)NC(=O)[C@H](C)NC(=O)[C@H](C)NC(=O)[C@H](C)NC(=O)[C@H](C)NC(=O)[C@H](C)N)(c1ccccc1)c1ccccc1 [Diphenyl bis(nonaalanyl)silylester] (I: H-AAAAAAAAA / II: H-AAAAAAAAA; linker I:C-II:C via X2)
Wirkung auf Lymphome (Lymphome): zeigen eine Wirkung | Wirkung gegen Hepatitis-Viren (Hepatitis-Viren): zeigen eine Wirkung

C[C@H](N)C(=O)N[C@@H](C)C(=O)N[C@@H](C)C(=O)N[C@@H](C)C(=O)N[C@@H](C)C(=O)N[C@@H](C)C(=O)N[C@@H](C)C(=O)N[C@@H](C)C(=O)O[Si](OC(=O)[C@H](C)NC(=O)[C@H](C)NC(=O)[C@H](C)NC(=O)[C@H](C)NC(=O)[C@H](C)NC(=O)[C@H](C)NC(=O)[C@H](C)NC(=O)[C@H](C)N)(c1ccccc1)c1ccccc1 [Diphenyl bis(octaalanyl)silylester] (I: H-AAAAAAAA / II: H-AAAAAAAA; linker I:C-II:C via X2)
Wirkung auf Lymphome (Lymphome): zeigen eine Wirkung | Wirkung gegen Hepatitis-Viren (Hepatitis-Viren): zeigen eine Wirkung

C[C@H](N)C(=O)N[C@@H](C)C(=O)N[C@@H](C)C(=O)N[C@@H](C)C(=O)N[C@@H](C)C(=O)O[Si](OC(=O)[C@H](C)NC(=O)[C@H](C)NC(=O)[C@H](C)NC(=O)[C@H](C)NC(=O)[C@H](C)N)(c1ccccc1)c1ccccc1 [Diphenyl bis(pentaalanyl)silylester]
Wirkung auf Lymphome (Lymphome): zeigen eine Wirkung | Wirkung gegen Hepatitis-Viren (Hepatitis-Viren): zeigen eine Wirkung

C[C@H](N)C(=O)N[C@@H](C)C(=O)N[C@@H](C)C(=O)N[C@@H](C)C(=O)O[Si](OC(=O)[C@H](C)NC(=O)[C@H](C)NC(=O)[C@H](C)NC(=O)[C@H](C)N)(c1ccccc1)c1ccccc1 [Diphenyl bis(tetraalanyl)silylester]
Wirkung auf Lymphome (Lymphome): zeigen eine Wirkung | Wirkung gegen Hepatitis-Viren (Hepatitis-Viren): zeigen eine Wirkung

Diphenyl bis(hexaalanyl)silylester
Wirkung auf Lymphome (Lymphome): zeigen eine Wirkung | Wirkung gegen Hepatitis-Viren (Hepatitis-Viren): zeigen eine Wirkung

Reference: EP1948196B1, “USE OF TETRAORGANOSILICON COMPOUNDS” (Salama, Zoser B., priority 2005, dated 2007)
